Several values for one entry are separate records, joined by “and”; a condition that tells them apart may be missing. Equal values may be shown once. Read-outs that look alike come from different tables or passages of the source.
How the values were obtained:
[1] = molecular target: FER (Homo sapiens (Human), UniProt P16591); assay: KINOMEscan; format: binding; details: 10000 nM, read-out: Percent Control
[2] = molecular target: PCTK2 (Homo sapiens (Human), UniProt Q00537); assay: KINOMEscan; format: binding; details: PCTK2, 10000 nM; read-out: Percent Control
[3] = molecular target: QSK (Homo sapiens (Human), UniProt Q9Y2K2); assay: KINOMEscan; format: binding; details: 10000 nM, read-out: Percent Control
[4] = molecular target: ACVRL1 (Homo sapiens (Human), UniProt P37023); assay: KINOMEscan; format: binding; details: ACVRL1, 10000 nM; read-out: Percent Control
Sequence of ACVRL1 (P37023 22-503): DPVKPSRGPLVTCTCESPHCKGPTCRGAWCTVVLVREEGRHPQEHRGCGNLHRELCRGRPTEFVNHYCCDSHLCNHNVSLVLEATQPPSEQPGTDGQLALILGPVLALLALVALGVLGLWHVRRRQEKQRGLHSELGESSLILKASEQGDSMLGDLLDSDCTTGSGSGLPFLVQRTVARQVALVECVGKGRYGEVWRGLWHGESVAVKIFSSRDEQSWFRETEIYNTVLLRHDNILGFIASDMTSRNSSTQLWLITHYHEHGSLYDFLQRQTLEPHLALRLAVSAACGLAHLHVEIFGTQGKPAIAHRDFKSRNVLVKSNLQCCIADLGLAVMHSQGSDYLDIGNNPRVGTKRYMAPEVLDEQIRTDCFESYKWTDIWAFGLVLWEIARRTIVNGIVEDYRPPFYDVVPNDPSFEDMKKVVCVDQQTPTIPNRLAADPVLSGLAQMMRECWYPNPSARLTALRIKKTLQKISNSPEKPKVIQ

[5] = molecular target: PCTK3 (Homo sapiens (Human), UniProt Q07002); assay: KINOMEscan; format: binding; details: PCTK3, 10000 nM; read-out: Percent Control
[6] = molecular target: CIT (Homo sapiens (Human), UniProt O14578); assay: KINOMEscan; format: binding; details: 10000 nM, read-out: Percent Control
Sequence of CIT (O14578 whole entry): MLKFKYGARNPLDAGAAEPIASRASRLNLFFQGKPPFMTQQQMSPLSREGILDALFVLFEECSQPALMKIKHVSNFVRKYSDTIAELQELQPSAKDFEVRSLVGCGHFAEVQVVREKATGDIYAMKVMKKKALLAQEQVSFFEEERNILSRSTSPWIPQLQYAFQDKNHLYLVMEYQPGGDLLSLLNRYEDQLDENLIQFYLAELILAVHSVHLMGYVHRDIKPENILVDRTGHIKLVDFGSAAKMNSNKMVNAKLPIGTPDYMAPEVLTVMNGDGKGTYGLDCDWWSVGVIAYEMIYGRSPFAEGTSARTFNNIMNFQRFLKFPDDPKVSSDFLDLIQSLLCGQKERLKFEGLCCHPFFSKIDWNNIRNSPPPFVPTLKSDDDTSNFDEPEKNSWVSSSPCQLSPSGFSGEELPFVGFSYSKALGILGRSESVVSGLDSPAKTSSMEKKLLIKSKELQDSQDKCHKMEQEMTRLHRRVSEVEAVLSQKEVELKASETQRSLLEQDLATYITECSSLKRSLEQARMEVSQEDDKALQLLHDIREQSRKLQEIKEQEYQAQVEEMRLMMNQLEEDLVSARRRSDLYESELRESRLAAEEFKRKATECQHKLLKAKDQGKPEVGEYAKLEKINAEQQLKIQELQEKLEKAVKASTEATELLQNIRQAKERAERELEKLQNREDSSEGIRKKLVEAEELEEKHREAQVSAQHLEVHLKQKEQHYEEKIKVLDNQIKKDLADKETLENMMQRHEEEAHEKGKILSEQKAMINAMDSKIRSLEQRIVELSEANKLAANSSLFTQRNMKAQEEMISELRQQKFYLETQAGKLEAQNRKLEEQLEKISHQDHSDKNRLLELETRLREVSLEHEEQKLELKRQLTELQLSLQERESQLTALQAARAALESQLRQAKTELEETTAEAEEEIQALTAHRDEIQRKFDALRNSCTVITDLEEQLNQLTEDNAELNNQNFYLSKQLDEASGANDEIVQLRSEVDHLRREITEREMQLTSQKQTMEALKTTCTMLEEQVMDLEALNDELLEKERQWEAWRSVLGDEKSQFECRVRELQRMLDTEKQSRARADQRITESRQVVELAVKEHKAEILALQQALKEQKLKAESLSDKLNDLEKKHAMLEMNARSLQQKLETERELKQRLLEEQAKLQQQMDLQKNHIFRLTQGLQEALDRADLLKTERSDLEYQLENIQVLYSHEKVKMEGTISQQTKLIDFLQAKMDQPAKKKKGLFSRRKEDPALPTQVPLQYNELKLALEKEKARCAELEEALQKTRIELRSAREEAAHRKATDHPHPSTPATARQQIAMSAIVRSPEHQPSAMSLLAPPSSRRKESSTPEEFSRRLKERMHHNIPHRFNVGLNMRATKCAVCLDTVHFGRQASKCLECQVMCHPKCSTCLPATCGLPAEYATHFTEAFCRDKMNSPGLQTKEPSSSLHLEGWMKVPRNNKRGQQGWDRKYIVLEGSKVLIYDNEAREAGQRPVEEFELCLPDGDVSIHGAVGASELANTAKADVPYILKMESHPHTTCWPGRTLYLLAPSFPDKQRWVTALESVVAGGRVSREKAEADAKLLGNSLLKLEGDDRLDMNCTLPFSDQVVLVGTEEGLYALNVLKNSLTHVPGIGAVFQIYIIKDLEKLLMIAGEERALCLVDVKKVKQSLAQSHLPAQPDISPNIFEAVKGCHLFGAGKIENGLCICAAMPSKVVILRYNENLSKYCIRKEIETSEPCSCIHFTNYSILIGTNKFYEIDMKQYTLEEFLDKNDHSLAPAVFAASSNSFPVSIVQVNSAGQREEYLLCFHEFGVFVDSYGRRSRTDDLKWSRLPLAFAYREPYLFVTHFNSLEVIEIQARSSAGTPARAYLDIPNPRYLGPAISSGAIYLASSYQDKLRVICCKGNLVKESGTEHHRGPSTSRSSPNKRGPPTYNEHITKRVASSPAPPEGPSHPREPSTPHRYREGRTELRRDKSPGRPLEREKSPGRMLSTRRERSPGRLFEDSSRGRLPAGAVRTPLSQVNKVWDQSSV

[7] = molecular target: TTK (Homo sapiens (Human), UniProt P33981); assay: KINOMEscan; format: binding; details: 10000 nM, read-out: Percent Control
[8] = molecular target: ERBB2 (Homo sapiens (Human), UniProt P04626); assay: KINOMEscan; format: binding; details: ERBB2, 10000 nM; read-out: Percent Control
[9] = molecular target: TYRO3 (Homo sapiens (Human), UniProt Q06418); assay: KINOMEscan; format: binding; details: TYRO3, 10000 nM; read-out: Percent Control
[10] = molecular target: PIK3CA(H1047Y) (Homo sapiens (Human), UniProt P42336, H1047Y); assay: KINOMEscan; format: binding; details: 10000 nM, read-out: Percent Control
[11] = molecular target: MST3 (Homo sapiens (Human), UniProt Q9Y6E0); assay: KINOMEscan; format: binding; details: MST3, 10000 nM; read-out: Percent Control
[12] = molecular target: CDK2 (Homo sapiens (Human), UniProt P24941); assay: KINOMEscan; format: binding; details: CDK2, 10000 nM; read-out: Percent Control
[13] = molecular target: KIT(L576P) (Homo sapiens (Human), UniProt P10721, L576P); assay: KINOMEscan; format: binding; details: 10000 nM, read-out: Percent Control
[14] = molecular target: KIT(V559D) (Homo sapiens (Human), UniProt P10721, V559D); assay: KINOMEscan; format: binding; details: 10000 nM, read-out: Percent Control
[15] = molecular target: VPS34 (Homo sapiens (Human), UniProt Q8NEB9); assay: KINOMEscan; format: binding; details: VPS34, 10000 nM; read-out: Percent Control
Sequence of VPS34 (Q8NEB9 whole entry): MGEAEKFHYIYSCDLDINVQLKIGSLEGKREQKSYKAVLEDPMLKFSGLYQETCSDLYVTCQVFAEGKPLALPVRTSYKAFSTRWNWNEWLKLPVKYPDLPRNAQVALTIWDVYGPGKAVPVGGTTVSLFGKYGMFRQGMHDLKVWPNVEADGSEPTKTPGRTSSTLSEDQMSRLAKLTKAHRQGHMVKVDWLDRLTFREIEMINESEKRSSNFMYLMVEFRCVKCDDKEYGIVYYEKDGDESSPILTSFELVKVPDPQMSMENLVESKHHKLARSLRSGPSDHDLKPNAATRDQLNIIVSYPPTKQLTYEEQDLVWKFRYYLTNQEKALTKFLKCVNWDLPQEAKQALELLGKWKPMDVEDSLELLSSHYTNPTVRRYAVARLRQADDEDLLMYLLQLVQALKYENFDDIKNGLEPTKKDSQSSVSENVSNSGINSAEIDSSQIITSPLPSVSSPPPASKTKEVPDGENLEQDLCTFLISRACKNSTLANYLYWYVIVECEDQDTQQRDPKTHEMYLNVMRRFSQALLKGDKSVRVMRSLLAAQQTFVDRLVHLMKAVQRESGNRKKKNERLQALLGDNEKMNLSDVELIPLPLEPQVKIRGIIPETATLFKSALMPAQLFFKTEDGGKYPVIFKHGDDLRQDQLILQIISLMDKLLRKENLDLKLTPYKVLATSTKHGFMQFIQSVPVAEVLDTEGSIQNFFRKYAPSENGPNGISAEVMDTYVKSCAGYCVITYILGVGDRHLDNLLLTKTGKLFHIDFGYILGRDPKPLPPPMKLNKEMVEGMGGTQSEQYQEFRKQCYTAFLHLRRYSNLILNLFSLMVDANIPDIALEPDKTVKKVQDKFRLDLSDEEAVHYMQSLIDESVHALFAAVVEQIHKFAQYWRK

[16] = molecular target: RSK1(Kin.Dom.2-C-terminal) (Homo sapiens (Human), UniProt Q15418); assay: KINOMEscan; format: binding; details: 10000 nM, read-out: Percent Control
Sequence of RSK1(Kin.Dom.2-C-terminal) (Q15418 418-675): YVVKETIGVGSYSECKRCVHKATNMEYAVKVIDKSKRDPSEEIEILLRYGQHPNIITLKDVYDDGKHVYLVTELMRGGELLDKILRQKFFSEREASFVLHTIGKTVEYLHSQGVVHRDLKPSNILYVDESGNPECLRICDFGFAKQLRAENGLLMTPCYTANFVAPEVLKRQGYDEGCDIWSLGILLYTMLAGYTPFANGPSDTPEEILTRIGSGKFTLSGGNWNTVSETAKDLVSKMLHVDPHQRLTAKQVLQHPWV

[17] = molecular target: CDKL3 (Homo sapiens (Human), UniProt Q8IVW4); assay: KINOMEscan; format: binding; details: CDKL3, 10000 nM; read-out: Percent Control
[18] = molecular target: CSF1R-autoinhibited (Homo sapiens (Human), UniProt P07333); assay: KINOMEscan; format: binding; details: 10000 nM, read-out: Percent Control
[19] = molecular target: JNK1 (Homo sapiens (Human), UniProt P45983); assay: KINOMEscan; format: binding; details: JNK1, 10000 nM; read-out: Percent Control
[20] = molecular target: KIT(V559D, T670I) (Homo sapiens (Human), UniProt P10721, T670I/V559D); assay: KINOMEscan; format: binding; details: 10000 nM, read-out: Percent Control
[21] = molecular target: MLK1 (Homo sapiens (Human), UniProt P80192); assay: KINOMEscan; format: binding; details: MLK1, 10000 nM; read-out: Percent Control
[22] = molecular target: CAMK1D (Homo sapiens (Human), UniProt Q8IU85); assay: KINOMEscan; format: binding; details: 10000 nM, read-out: Percent Control
Sequence of CAMK1D (Q8IU85 whole entry): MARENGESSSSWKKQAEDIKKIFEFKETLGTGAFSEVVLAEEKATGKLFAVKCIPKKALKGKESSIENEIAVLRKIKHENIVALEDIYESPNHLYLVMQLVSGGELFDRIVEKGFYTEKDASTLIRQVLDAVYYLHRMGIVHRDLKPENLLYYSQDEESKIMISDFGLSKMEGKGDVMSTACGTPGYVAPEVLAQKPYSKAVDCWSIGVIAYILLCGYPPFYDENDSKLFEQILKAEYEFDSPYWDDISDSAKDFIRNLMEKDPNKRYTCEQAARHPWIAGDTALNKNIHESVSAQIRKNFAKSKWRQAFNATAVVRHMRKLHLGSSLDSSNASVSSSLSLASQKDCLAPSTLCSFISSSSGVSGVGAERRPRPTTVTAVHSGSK

[23] = molecular target: PTK2 (FAK) (Homo sapiens (Human), UniProt Q05397); assay: Z′-LYTE kinase assay (SelectScreen Biochemical Kinase Profiling), enzymatic IC50
Sequence of PTK2 (FAK) (Q05397 whole entry): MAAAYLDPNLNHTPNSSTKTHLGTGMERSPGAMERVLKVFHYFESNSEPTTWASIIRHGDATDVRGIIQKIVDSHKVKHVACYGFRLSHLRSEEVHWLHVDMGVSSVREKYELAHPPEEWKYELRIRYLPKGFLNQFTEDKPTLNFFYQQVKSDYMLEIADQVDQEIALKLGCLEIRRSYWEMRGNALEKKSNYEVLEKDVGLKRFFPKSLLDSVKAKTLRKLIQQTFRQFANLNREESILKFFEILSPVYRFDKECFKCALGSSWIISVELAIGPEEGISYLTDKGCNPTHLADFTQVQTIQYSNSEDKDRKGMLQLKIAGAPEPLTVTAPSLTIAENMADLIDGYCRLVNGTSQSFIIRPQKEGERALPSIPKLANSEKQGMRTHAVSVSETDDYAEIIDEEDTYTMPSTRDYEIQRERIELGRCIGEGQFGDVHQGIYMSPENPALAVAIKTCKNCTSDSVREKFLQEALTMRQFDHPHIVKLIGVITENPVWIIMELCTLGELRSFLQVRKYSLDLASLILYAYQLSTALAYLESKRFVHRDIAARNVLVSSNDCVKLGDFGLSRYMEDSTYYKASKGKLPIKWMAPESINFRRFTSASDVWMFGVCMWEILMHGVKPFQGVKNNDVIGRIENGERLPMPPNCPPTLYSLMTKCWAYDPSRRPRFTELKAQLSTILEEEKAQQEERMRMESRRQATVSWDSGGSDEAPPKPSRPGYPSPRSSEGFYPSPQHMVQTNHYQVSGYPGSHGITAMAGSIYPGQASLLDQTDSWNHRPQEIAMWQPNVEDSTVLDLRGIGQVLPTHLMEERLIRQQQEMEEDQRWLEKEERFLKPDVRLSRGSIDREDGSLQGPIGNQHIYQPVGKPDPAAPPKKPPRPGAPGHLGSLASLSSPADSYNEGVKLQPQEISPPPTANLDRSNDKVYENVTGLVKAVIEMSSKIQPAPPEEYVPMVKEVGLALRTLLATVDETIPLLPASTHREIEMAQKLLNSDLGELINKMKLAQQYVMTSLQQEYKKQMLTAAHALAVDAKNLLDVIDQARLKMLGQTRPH
Experimental: Enzymatic IC50 data was obtained through ThermoFisher Scientific SelectScreen™ Biochemical Kinase Profiling Service, using a Z′-LYTE™ kinase-specific assay, as described below.
The test compounds were screened in 1% dimethyl sulfoxide (DMSO) (final) in the well. For 10 point titrations, 3-fold serial dilutions were conducted from the starting concentration.
All peptide/kinase mixtures were diluted to a 2× working concentration in the appropriate kinase buffer (see section kinase specific assay conditions for a complete description).
All ATP solutions were diluted to a 4× working concentration in kinase buffer (50 mM 4-(2-hydroxyethyl)-1-piperazineethanesulfonic acid (HEPES) pH 7.5, 0.01% BRIJ-35, 10 mM MgCl2, 1 mM ethylene glycol-bis(β-aminoethyl ether)-N,N,N′,N′-tetraacetic acid (EGTA)). ATP Km apparent was previously determined using a Z′-LYTE assay.
The development reagent was diluted in development buffer (see section kinase-specific assay conditions—direct and cascade for a complete description).
Using a bar-coded Corning, low volume NBS, black 384-well plate (Corning Cat. #4514), 100 nL of 100× test compound in 100% DMSO was added. […] The plate was then shaken for 30 seconds and held at room temperature for a 60 minute kinase reaction incubation period. At which point 5 μL of development reagent solution was added and the plate was shaken for 30 seconds. The plate was held again at room temperature for a 60 minute development reaction incubation period and then read on a fluorescence plate reader and analyzed.
The 2×PTK2 (FAK)/Tyr 07 mixture was prepared in 50 mM HEPES pH 7.5, 0.01% BRIJ-35, 10 mM MgCl2, 1 mM EGTA. […] After the 1 hour kinase reaction incubation period, 5 μL of a 1:16 dilution of development reagent B was added.
SelectScreen Kinase Profiling Service uses XLfit from ID Business Solutions (IDBS). The dose response curve was curve fit to model number 205 (sigmoidal dose-response model).

[24] = molecular target: CSNK2A1 (Homo sapiens (Human), UniProt P68400); assay: KINOMEscan; format: binding; details: CSNK2A1, 10000 nM; read-out: Percent Control
[25] = molecular target: INSRR (Homo sapiens (Human), UniProt P14616); assay: KINOMEscan; format: binding; details: 10000 nM, read-out: Percent Control
[26] = enzymatic, Z′-LYTE, read-out: FAK IC50

SMILES	remaining binding at 10 µM [1] [%]	remaining binding at 10 µM [2] [%]	remaining binding at 10 µM [3] [%]	remaining binding at 10 µM [4] [%]	remaining binding at 10 µM [5] [%]	remaining binding at 10 µM [6] [%]	remaining binding at 10 µM [7] [%]	remaining binding at 10 µM [8] [%]	remaining binding at 10 µM [9] [%]	remaining binding at 10 µM [10] [%]	remaining binding at 10 µM [11] [%]	remaining binding at 10 µM [12] [%]	remaining binding at 10 µM [13] [%]	remaining binding at 10 µM [14] [%]	remaining binding at 10 µM [15] [%]	remaining binding at 10 µM [16] [%]	remaining binding at 10 µM [17] [%]	remaining binding at 10 µM [18] [%]	remaining binding at 10 µM [19] [%]	remaining binding at 10 µM [20] [%]	also measured
COc1cc(N2CCC(N3CCN(C)CC3)CC2)ccc1Nc1ncc2c(n1)N(C)c1sc(C)nc1C(=O)N2 [Compound 3, 6-((2-methoxy-4-(4-(4-methylpiperazin-1-yl)piperidin-1-yl)phenyl)amino)-2,4-dimethyl-4,9-dihydro-10H-pyrimido[5,4-b]thiazolo[5,4-e][1,4]diazepin-10-one]	74	76	100	96	90	73	51	98	92	91	89	81	47	56	100	81	75	90	100	86	remaining binding at 10 µM [21]: 94%; remaining binding at 10 µM [22]: 98%; IC50 [23, 26]: 62 nM and 62.2 nM; remaining binding at 10 µM [24]: 93%; remaining binding at 10 µM [25]: 84%
COc1cc(N2CCC(N3CCN(C)CC3)CC2)ccc1Nc1ncc2c(n1)N(C)c1sc(C)nc1C(=O)N2C [Compound 5, 6-((2-methoxy-4-(4-(4-methylpiperazin-1-yl)piperidin-1-yl)phenyl)amino)-2,4,9-trimethyl-4,9-dihydro-10H-pyrimido[5,4-b]thiazolo[5,4-e][1,4]diazepin-10-one]	57	100	94	99	98	98	6.9	100	88	100	90	100	100	100	89	55	100	100	100	95	remaining binding at 10 µM [21]: 41%; remaining binding at 10 µM [22]: 86%; IC50 ([23]; FAK, Invitrogen, read-out: Biochemical IC50): 20.2 ± 1.9 nM; IC50 [23, 26]: 18.3 nM; remaining binding at 10 µM [24]: 95%; remaining binding at 10 µM [25]: 22%

From US12365696B2, “Small-molecule focal adhesion kinase (FAK) inhibitors” (DANA-FARBER CANCER INSTITUTE, INC., priority 2019, dated 2025)
